Test results: patent US11072617B2, “Bicyclic sulfones and sulfoxides and methods of use thereof” (Genentech, Inc., priority 2017, dated 2021)

Biological target: human RIP1 kinase domain (2-375) (Homo sapiens (Human), UniProt Q13546)
Assay: RIP1 kinase inhibition biochemical assay (Transcreener ADP, fluorescence polarization)
Settings: Ki app from tight-binding Morrison equation; 50 nM enzyme, 50 uM ATP, 2 hours incubation
How it was run: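 Baculovirus-expressed human RIP1 kinase domain (2-375), 50 nM, incubated 2 h with compounds in pH 7.5 Hepes, 30 mM MgCl2, 50 uM ATP, 0.5% DMSO. ADP detected by Transcreener fluorescence-polarization tracer displacement; Ki^app from Morrison tight-binding fit.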

human RIP1 kinase domain (2-375), sequence (Q13546 2-375): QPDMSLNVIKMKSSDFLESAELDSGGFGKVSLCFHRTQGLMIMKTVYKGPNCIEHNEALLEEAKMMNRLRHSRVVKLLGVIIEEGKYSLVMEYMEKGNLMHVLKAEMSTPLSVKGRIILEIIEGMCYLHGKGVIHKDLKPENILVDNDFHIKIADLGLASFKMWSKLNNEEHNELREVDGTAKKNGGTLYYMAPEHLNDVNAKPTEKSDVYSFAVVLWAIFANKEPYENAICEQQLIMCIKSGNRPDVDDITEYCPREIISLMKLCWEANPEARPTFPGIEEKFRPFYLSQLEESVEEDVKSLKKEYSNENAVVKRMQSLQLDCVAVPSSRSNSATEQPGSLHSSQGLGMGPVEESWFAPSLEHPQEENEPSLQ

SMILES | Ki [nM]
O=S(=O)(c1nc2n(n1)[C@H](c1ccccc1)C[C@@H]2F)C1CC1(F)F (mixture of isomers) [Example 118, (5S,7S)-2-((2,2-difluorocyclopropyl)sulfonyl)-7-fluoro-5-phenyl-6,7-dihydro-5H-pyrrolo[1,2-b][1,2,4]triazole] | 4
[O-][S@@+](CF)c1nc2n(n1)[C@H](c1cccc(F)c1F)C[C@@H]2F (single isomer, unassigned) [Example 76] | < 5
[O-][S@@+](CF)c1nc2n(n1)[C@H](c1cccc(F)c1)C[C@@H]2F (single isomer, unassigned) [Example 82] | < 5
CS(=O)(=O)c1nc2n(n1)C(c1ccccc1)CC2 (racemic) [Example 9] | 1040
O=S(=O)(c1nc2n(n1)[C@H](c1cccc(F)c1F)C[C@@H]2F)[C@@H]1CC1(F)F (single isomer, unassigned) [Example 128] | 10
[O-][S+](c1nc2n(n1)[C@H](c1cccc(F)c1)C[C@@H]2F)C(F)F (stereo partly drawn) [Example 54, (5S,7S)-2-((difluoromethyl)sulfinyl)-7-fluoro-5-(3-fluorophenyl)-6,7-dihydro-5H-pyrrolo[1,2-b][1,2,4]triazole] | 17
[O-][S+](Cc1ccccn1)c1nc2n(n1)[C@H](c1ccccc1)C[C@@H]2F (stereo partly drawn) [Example 147, (5S,7S)-7-fluoro-5-phenyl-2-((pyridin-2-ylmethyl)sulfinyl)-6,7-dihydro-5H-pyrrolo[1,2-b][1,2,4]triazole] | 140
O=S(=O)(c1nc2n(n1)[C@H](c1c(F)ccc(F)c1F)C[C@@H]2F)C1CC1 (single isomer, unassigned) [Example 38] | 10
[O-][S+](c1nc2n(n1)[C@H](c1ccccc1)C[C@@H]2F)C1CC1 (stereo partly drawn) [Example 27, (5S,7S)-2-cyclopropylsulfinyl-7-fluoro-5-phenyl-6,7-dihydro-5H-pyrrolo[1,2-b][1,2,4]triazole] | 33
[O-][S@@+](CC1CC1)c1nc2n(n1)[C@H](c1ccccc1)C[C@@H]2F (single isomer, unassigned) [Example 186] | 20
CC[S@+]([O-])c1nc2n(n1)[C@H](c1ccccc1)C[C@@H]2F (single isomer, unassigned) [Example 190] | 8
O=S(=O)(c1nc2n(n1)[C@H](c1ccccc1)C[C@@H]2F)[C@@H]1C[C@H]1F (single isomer, unassigned) [Example 145] | 5
CC1(S(=O)(=O)c2nc3n(n2)[C@H](c2ccccc2)C[C@@H]3F)CC1(F)F (stereo partly drawn) [Example 167, (5S,7S)-2-((2,2-difluoro-1-methylcyclopropyl)sulfonyl)-7-fluoro-5-phenyl-6,7-dihydro-5H-pyrrolo[1,2-b][1,2,4]triazole] | 12
O=S(=O)(c1nc2n(n1)[C@H](c1ccccc1)C[C@@H]2F)[C@H]1C[C@H](F)C1 (single isomer, unassigned) [Example 164] | < 5
O=S(=O)(c1nc2n(n1)C(c1ccccc1)CC2)C(F)(F)c1ccccc1 (racemic) [Example 4, 2-[difluoro(phenyl)methyl]sulfonyl-5-phenyl-6,7-dihydro-5H-pyrrolo[1,2-b][1,2,4]triazole] | 152
[O-][S@@+](c1nc2n(n1)[C@H](c1cccc(F)c1)C[C@@H]2F)C(F)F (single isomer, unassigned) [Example 179] | 210

SMILES | Ki [nM]
[O-][S+](c1nc2n(n1)C(c1ccccc1)CC2)C(F)(F)c1ccccc1 (stereo not shown) [Example 5, 2-[difluoro(phenyl)methyl]sulfinyl-5-phenyl-6,7-dihydro-5H-pyrrolo[1,2-b][1,2,4]triazole] | 548
N#CC1CC1S(=O)(=O)c1nc2n(n1)[C@H](c1ccccc1)C[C@@H]2F (stereo in doubt) [Example 222, (1R,2R)-2-[[(5S,7S)-7-fluoro-5-phenyl-6,7-dihydro-5H-pyrrolo[1,2-b][1,2,4]triazol-2-yl]sulfonyl]cyclopropanecarbonitrile] | 61
[O-][S@@+](CF)c1nc2n(n1)[C@H](c1c(F)cccc1F)C[C@@H]2F (single isomer, unassigned) [Example 80] | < 5
O=S(=O)(c1nc2n(n1)[C@H](c1ccc(F)cc1)C[C@@H]2F)C1CC1F (stereo in doubt) [Example 196, (5S,7S)-7-fluoro-5-(4-fluorophenyl)-2-[(1S,2S)-2-fluorocyclopropyl]sulfonyl-6,7-dihydro-5H-pyrrolo[1,2-b][1,2,4]triazole] | 32
O=S(=O)(c1nc2n(n1)[C@H](c1cc(Cl)ccc1F)C[C@@H]2F)C1CC1F (stereo in doubt) [Example 218, (5S,7S)-5-(5-chloro-2-fluoro-phenyl)-7-fluoro-2-[(1R,2R)-2-fluorocyclopropyl]sulfonyl-6,7-dihydro-5H-pyrrolo[1,2-b][1,2,4]triazole] | 140
[O-][S+](CC(F)(F)F)c1nc2n(n1)C(c1ccccc1)CC2 (stereo not shown) [Example 177, 5-Phenyl-2-(2,2,2-trifluoroethylsulfinyl)-6,7-dihydro-5H-pyrrolo[1,2-b][1,2,4]triazole] | 57
O=S(=O)(c1nc2n(n1)[C@H](c1cc(F)cc(Cl)c1)C[C@@H]2F)C1CC1F (stereo in doubt) [Example 200, (5S,7S)-5-(3-chloro-5-fluoro-phenyl)-7-fluoro-2-[(1R,2R)-2-fluorocyclopropyl]sulfonyl-6,7-dihydro-5H-pyrrolo[1,2-b][1,2,4]triazole] | 48
N#CC[S+]([O-])c1nc2n(n1)[C@H](c1ccccc1)C[C@@H]2F (stereo partly drawn) [Example 102, 2-[[(5S,7S)-7-fluoro-5-phenyl-6,7-dihydro-5H-pyrrolo[1,2-b][1,2,4]triazol-2-yl]sulfinyl]acetonitrile] | 18
CC(C)(C#N)[S+]([O-])c1nc2n(n1)[C@H](c1ccccc1)C[C@@H]2F (stereo partly drawn) [Example 103, 2-[[(5S,7S)-7-fluoro-5-phenyl-6,7-dihydro-5H-pyrrolo[1,2-b][1,2,4]triazol-2-yl]sulfinyl]-2-methyl-propanenitrile] | 150
O=S(=O)(c1nc2n(n1)[C@H](c1c(F)cccc1F)C[C@@H]2F)C1CC1(F)F (stereo partly drawn) [Example 123, (5S,7S)-2-(2,2-difluorocyclopropyl)sulfonyl-5-(2,6-difluorophenyl)-7-fluoro-6,7-dihydro-5H-pyrrolo[1,2-b][1,2,4]triazole] | < 5
[O-][S+](CC(F)F)c1nc2n(n1)[C@H](c1ccccc1)C[C@@H]2F (stereo partly drawn) [Example 148, (5S,7S)-2-(2,2-difluoroethylsulfinyl)-7-fluoro-5-phenyl-6,7-dihydro-5H-pyrrolo[1,2-b][1,2,4]triazole] | 7
O=S(=O)(c1nc2n(n1)[C@H](c1cc(F)ccc1F)C[C@@H]2F)C1CC1(F)F (single isomer, unassigned) [Example 122] | 12
CC(C)(C)[S@@+]([O-])c1nc2n(n1)[C@H](c1ccccc1)C[C@@H]2F (single isomer, unassigned) [Example 191] | 5
O=S(=O)(c1nc2n(n1)[C@H](c1cccc(Cl)c1F)C[C@@H]2F)[C@H]1C[C@@H]1F [Example 219, (5S,7S)-5-(3-chloro-2-fluoro-phenyl)-7-fluoro-2-[(1S,2S)-2-fluorocyclopropyl]sulfonyl-6,7-dihydro-5H-pyrrolo[1,2-b][1,2,4]triazole] | 25
CC[S@@+]([O-])c1nc2n(n1)[C@H](c1ccccc1)C[C@@H]2F (single isomer, unassigned) [Example 188] | 510
